Results taken from ChEMBL document CHEMBL1201862, “PubChem BioAssay data set” (2004).
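Growth conditions: 96-well plates. Treatment: test compound, 48 hours, 5 concentrations. Analysis: linear interpolation between bracketing concentrations; unreached endpoints set to highest concentration. Abbreviation: GI50, concentration required for 50% inhibition of growth.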 Activity calls are given as the source filed them. Rule as the data show it: active = GI50 up to about 1.1 µM and inactive = higher.

What was measured:
Test in all cases: inhibition of tumour cell growth, NCI panel, 48 h
OVCAR-5 = tested on: OVCAR-5
CAKI-1 = tested on: CAKI-1
OVCAR-8 = tested on: OVCAR-8
EKVX = tested on: EKVX
RPMI-8226 = tested on: RPMI-8226
BT-549 = tested on: BT-549
SN12C = tested on: SN12C
HT-29 = tested on: HT-29
NCI-H23 = tested on: NCI-H23
MCF7 = tested on: MCF7
UO-31 = tested on: UO-31
U-251 = tested on: U-251
PC-3 = tested on: PC-3
SK-OV-3 = tested on: SK-OV-3
RXF 393 = tested on: RXF 393
M14 = tested on: M14
SF-539 = tested on: SF-539
MDA-MB-435 = tested on: MDA-MB-435
HCT-15 = tested on: HCT-15
NCI-H522 = tested on: NCI-H522
SK-MEL-28 = tested on: SK-MEL-28
UACC-257 = tested on: UACC-257
MDA-N = tested on: MDA-N
786-0 = tested on: 786-0
OVCAR-3 = tested on: OVCAR-3
A498 = tested on: A498
HOP-92 = tested on: HOP-92
HCT-116 = tested on: HCT-116
ACHN = tested on: ACHN
SNB-19 = tested on: SNB-19
SK-MEL-5 = tested on: SK-MEL-5
A549 = tested on: A549
COLO 205 = tested on: COLO 205
MOLT-4 = tested on: MOLT-4
SNB-75 = tested on: SNB-75
SF-268 = tested on: SF-268
HCC 2998 = tested on: HCC 2998
IGROV-1 = tested on: IGROV-1
KM12 = tested on: KM12
TK-10 = tested on: TK-10
HOP-62 = tested on: HOP-62
K562 = tested on: K562
Hs-578T = tested on: Hs-578T
T47D = tested on: T47D
DU-145 = tested on: DU-145
NCI/ADR-RES = tested on: NCI/ADR-RES
SR = tested on: SR
NCI-H226 = tested on: NCI-H226
SW-620 = tested on: SW-620
OVCAR-4 = tested on: OVCAR-4
LOX IMVI = tested on: LOX IMVI
SK-MEL-2 = tested on: SK-MEL-2
SF-295 = tested on: SF-295
UACC-62 = tested on: UACC-62
NCI-H460 = tested on: NCI-H460
Malme-3M = tested on: Malme-3M
MDA-MB-231 = tested on: MDA-MB-231
CCRF-CEM = tested on: CCRF-CEM
HL-60 = tested on: HL-60

Compound: NCCC1CN(C(=O)OCc2ccccc2)c2ccccc21 (stereo not given)
- GI50 (OVCAR-5): 17.1 µM (inactive)
- GI50 (CAKI-1): 21.4 µM (inactive)
- GI50 (OVCAR-8): 8.17 µM (inactive)
- GI50 (EKVX): 20.2 µM (inactive)
- GI50 (RPMI-8226): 12.8 µM (inactive)
- GI50 (BT-549): 16.8 µM (inactive)
- GI50 (SN12C): 13.2 µM (inactive)
- GI50 (HT-29): 12.5 µM (inactive)
- GI50 (NCI-H23): 15 µM (inactive)
- GI50 (MCF7): 1.01 µM (active)
- GI50 (UO-31): 12.7 µM (inactive)
- GI50 (U-251): 14.3 µM (inactive)
- GI50 (PC-3): 3.86 µM (inactive)
- GI50 (SK-OV-3): > 42.4 µM (inactive)
- GI50 (RXF 393): 8.45 µM (inactive)
- GI50 (M14): 13.8 µM (inactive)
- GI50 (SF-539): 3.44 µM (inactive)
- GI50 (MDA-MB-435): 14.8 µM (inactive)
- GI50 (HCT-15): 1.78 µM
- GI50 (NCI-H522): 14.5 µM (inactive)
- GI50 (SK-MEL-28): 18.6 µM (inactive)
- GI50 (UACC-257): 17.3 µM (inactive)
- GI50 (MDA-N): 13.5 µM (inactive)
- GI50 (786-0): 16.1 µM (inactive)
- GI50 (OVCAR-3): 16.7 µM (inactive)
- GI50 (A498): > 37.2 µM (inactive)
- GI50 (HOP-92): 5.45 µM (inactive)
- GI50 (HCT-116): 3.59 µM (inactive)
- GI50 (ACHN): 22.6 µM (inactive)
- GI50 (SNB-19): 19.5 µM (inactive)
- GI50 (SK-MEL-5): 11.2 µM (inactive)
- GI50 (A549): 27.5 µM (inactive)
- GI50 (COLO 205): 16.3 µM (inactive)
- GI50 (MOLT-4): 12 µM (inactive)
- GI50 (SNB-75): 12.3 µM (inactive)
- GI50 (SF-268): 17.1 µM (inactive)
- GI50 (HCC 2998): 16.6 µM (inactive)
- GI50 (IGROV-1): 9.48 µM (inactive)
- GI50 (KM12): 17.8 µM (inactive)
- GI50 (TK-10): 22.6 µM (inactive)
- GI50 (HOP-62): 23.1 µM (inactive)
- GI50 (K562): 4.58 µM (inactive)
- GI50 (Hs-578T): 26.2 µM (inactive)
- GI50 (T47D): 3.13 µM (inactive)
- GI50 (DU-145): 17.3 µM (inactive)
- GI50 (NCI/ADR-RES): 15.1 µM (inactive)
- GI50 (SR): 2.9 µM (inactive)
- GI50 (NCI-H226): 12 µM (inactive)
- GI50 (SW-620): 6.67 µM (inactive)
- GI50 (OVCAR-4): 20.4 µM (inactive)
- GI50 (LOX IMVI): 4.12 µM (inactive)
- GI50 (SK-MEL-2): 18 µM (inactive)
- GI50 (SF-295): 18.3 µM (inactive)
- GI50 (UACC-62): 15.6 µM (inactive)
- GI50 (NCI-H460): 17.7 µM (inactive)
- GI50 (Malme-3M): 14.8 µM (inactive)
- GI50 (MDA-MB-231): 19.1 µM (inactive)

Compound: CCOC(=O)C1=C(O)C2C3CC4C2C(O)=C(C(=O)OCC)C2C1C3C42 (stereo not given)
- GI50 (OVCAR-5): > 100 µM (inactive)
- GI50 (CAKI-1): > 100 µM (inactive)
- GI50 (OVCAR-8): > 100 µM (inactive)
- GI50 (EKVX): > 100 µM (inactive)
- GI50 (RPMI-8226): 84.5 µM (inactive)
- GI50 (BT-549): > 100 µM (inactive)
- GI50 (SN12C): > 100 µM (inactive)
- GI50 (HT-29): > 100 µM (inactive)
- GI50 (NCI-H23): > 100 µM (inactive)
- GI50 (MCF7): > 100 µM (inactive)
- GI50 (UO-31): > 100 µM (inactive)
- GI50 (U-251): > 100 µM (inactive)
- GI50 (PC-3): > 100 µM (inactive)
- GI50 (SK-OV-3): > 100 µM (inactive)
- GI50 (RXF 393): > 100 µM (inactive)
- GI50 (M14): > 100 µM (inactive)
- GI50 (SF-539): > 100 µM (inactive)
- GI50 (MDA-MB-435): > 100 µM (inactive)
- GI50 (HCT-15): > 100 µM
- GI50 (NCI-H522): > 100 µM (inactive)
- GI50 (SK-MEL-28): > 100 µM (inactive)
- GI50 (UACC-257): > 100 µM (inactive)
- GI50 (MDA-N): > 100 µM (inactive)
- GI50 (786-0): > 100 µM (inactive)
- GI50 (OVCAR-3): > 100 µM (inactive)
- GI50 (A498): > 100 µM (inactive)
- GI50 (HOP-92): 95.5 µM (inactive)
- GI50 (HCT-116): > 100 µM (inactive)
- GI50 (ACHN): > 100 µM (inactive)
- GI50 (SNB-19): > 100 µM (inactive)
- GI50 (SK-MEL-5): > 100 µM (inactive)
- GI50 (A549): > 100 µM (inactive)
- GI50 (COLO 205): > 100 µM (inactive)
- GI50 (MOLT-4): > 100 µM (inactive)
- GI50 (SNB-75): > 100 µM (inactive)
- GI50 (SF-268): > 100 µM (inactive)
- GI50 (IGROV-1): > 100 µM (inactive)
- GI50 (KM12): > 100 µM (inactive)
- GI50 (TK-10): > 100 µM (inactive)
- GI50 (HOP-62): > 100 µM (inactive)
- GI50 (CCRF-CEM): 42.7 µM (inactive)
- GI50 (K562): > 100 µM (inactive)
- GI50 (Hs-578T): > 100 µM (inactive)
- GI50 (T47D): > 100 µM (inactive)
- GI50 (DU-145): > 100 µM (inactive)
- GI50 (HL-60): 24.8 µM (inactive)
- GI50 (NCI/ADR-RES): 18.7 µM (inactive)
- GI50 (SR): 45.3 µM (inactive)
- GI50 (NCI-H226): > 100 µM (inactive)
- GI50 (SW-620): > 100 µM (inactive)
- GI50 (OVCAR-4): > 100 µM (inactive)
- GI50 (LOX IMVI): 98.6 µM (inactive)
- GI50 (SK-MEL-2): > 100 µM (inactive)
- GI50 (SF-295): > 100 µM (inactive)
- GI50 (UACC-62): > 100 µM (inactive)
- GI50 (NCI-H460): > 100 µM (inactive)
- GI50 (Malme-3M): > 100 µM (inactive)
- GI50 (MDA-MB-231): > 100 µM (inactive)
